Patent US20240228469A1, “PCSK9 INHIBITORS AND METHODS OF USE THEREOF” (AstraZeneca AB, priority 2022, published 2024)

Tests used:
PCSK9 = PCSK9 (Homo sapiens, UniProt Q8NBP7, G670E/V474I); experiment: biochemical
[1] = molecular target: GSK3β (Glycogen synthase kinase-3 beta) (Homo sapiens, UniProt P49841); experiment: Assay 6 GSK3β assay (ThermoFisher Z-Lyte FRET); type: biochemical; conditions: ATP Conc: 10 μM, geometric mean; read-out: Assay 6 (GSK3β FRET-Z-Lyte Cr) GMean IC50
Procedure: This assay measures the activity of the compounds at GSK33 (Glycogen synthase kinase-3 beta).
The test compounds were screened in 1% DMSO (final) in the well. For 10 point titrations, 3-fold serial dilutions are conducted from the starting concentration of 10 PM.
Bar-coded Corning, low volume NBS, black 384-well plate • 1. 2.5 μL—4× Test Compound or 100 nL 100× plus 2.4 μL kinase buffer • 2. 5 μL—2× Peptide/Kinase Mixture • 3. 2.5 μL—4×ATP Solution • 4. 30-second plate shake • 5. 60-minute Kinase Reaction incubation at room temperature • 6. 5 μL—Development Reagent Solution • 7. 30-second plate shake • 8. 60-minute Development Reaction incubation at room temperature • 9. Read on fluorescence plate reader and analyse the data
In step 2, the 2×GSK3β (GSK3 beta)/Ser/Thr (Glycogen synthase kinase-3 beta/Serine/Threonine) 09 mixture is prepared in 50 mM HEPES (4-(2-hydroxyethyl)-1-piperazineethanesulfonic acid) pH 7.5, 0.01% BRIJ-35, 10 mM MgCl2, 1 mM EGTA (egtazic acid). The final 10 μL Kinase Reaction consists of 0.22-0.92 ng GSK3β (GSK3 beta) and 2 PM Ser/Thr 09 in 50 mM HEPES pH 7.5, 0.01% BRIJ-35, 10 mM MgCl2, 1 mM EGTA.
In step 3 the ATP Solution is diluted to a 4× working concentration in Kinase Buffer (50 mM HEPES pH 7.5, 0.01% BRIJ-35, 10 mM MgCl2, 1 mM EGTA).
In Step 6 the Development Reagent is diluted 1:512 in Development Buffer (10× Novel PKC Lipid Mix: 2 mg/mL Phosphatidyl Serine, 0.2 mg/mL DAG in 20 mM HEPES, pH 7.4, 0.3% CHAPS).
SelectScreen® Kinase Profiling Service uses XLfit from IDBS. The dose response curve is curve fit to model number 205 (sigmoidal dose-response model).

[2] = molecular target: T1, potassium ion channel hERG (Homo sapiens, UniProt Q12809); experiment: Assay 5 hERG assay (patch clamp, CHO cells over-expressing hERG); type: cell-based; conditions: SyncroPatch 384PE, room temperature, geometric mean, read-out: Assay 5 (hERG Hu CHO if EPh CR-Syncro) GMean IC50
T1 construct: expressed in transfected cells; host or cells: Chinese hamster ovary K1 (CHO)
Procedure: This assay (human Ether-d-go-go-Related Gene) measures activity of the compounds at the potassium ion channel hERG (human Ether-d-go-go-Related Gene).
Experiments were performed on the SyncroPatch 384PE high throughput patch clamp platform at room temperature and medium resistance chips with 4 patch holes per site. Chinese hamster ovary K1 (CHO) cell lines over-expressing the ion channel of choice (hERG) were used in assay-ready format and kept in liquid nitrogen or were used from live culture. Cells were either thawed and diluted in HBSS or were detached from flasks and resuspended in HBSS. HBSS comprised 140 mM NaCl, 4 mM KCl, 10 mM HEPES and 5 mM Glucose (pH7.4). The internal patch clamp solution was KF 120 mM, KCl 20 mM, HEPES 10 mM, EGTA 10 mM, and 25 PM Escin (pH 7.2). After the sealing process was complete, the external solution was exchanged for external patch clamp solution comprising NaCl 80 mM, KCl 4 mM, HEPES 10 mM, CaCl2 2 mM, MgCl2 1 mM, glucose 5 mM, and NMDG 60 mM (pH 7.4). All solutions were stored at room temperature, except Escin, which was stored at 4° C. All test compounds were dispensed in greiner-bio 384 well plates and tested in a 6 point cumulative assay (final DMSO concentration 0.33%). Only wells that passed previously agreed acceptance criteria for this platform were used in this analysis (30 MegaOhm seal resistance, Z prime >0.4 and current size >0.2 nA). […]

PCSK9, sequence (Q8NBP7 with tags, fused parts or gaps V474I/G670E): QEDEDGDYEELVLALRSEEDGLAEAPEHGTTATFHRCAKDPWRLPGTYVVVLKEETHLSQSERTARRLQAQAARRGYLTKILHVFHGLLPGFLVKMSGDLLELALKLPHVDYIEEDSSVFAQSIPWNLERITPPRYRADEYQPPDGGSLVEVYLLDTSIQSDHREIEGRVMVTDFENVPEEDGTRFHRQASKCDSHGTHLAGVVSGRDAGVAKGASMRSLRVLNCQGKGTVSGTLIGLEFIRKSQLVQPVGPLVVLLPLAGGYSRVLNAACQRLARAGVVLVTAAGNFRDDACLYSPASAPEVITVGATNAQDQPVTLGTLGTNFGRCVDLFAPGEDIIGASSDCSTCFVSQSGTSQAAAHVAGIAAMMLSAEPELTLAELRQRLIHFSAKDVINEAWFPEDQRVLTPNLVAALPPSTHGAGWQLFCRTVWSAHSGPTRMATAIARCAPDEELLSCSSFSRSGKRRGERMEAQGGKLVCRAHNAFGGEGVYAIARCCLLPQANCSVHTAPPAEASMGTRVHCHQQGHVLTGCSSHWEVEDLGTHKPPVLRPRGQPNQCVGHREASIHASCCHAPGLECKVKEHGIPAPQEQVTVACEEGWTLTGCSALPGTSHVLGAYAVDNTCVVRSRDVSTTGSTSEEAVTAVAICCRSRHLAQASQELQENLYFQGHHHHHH
T1 sequence (Q12809 whole entry): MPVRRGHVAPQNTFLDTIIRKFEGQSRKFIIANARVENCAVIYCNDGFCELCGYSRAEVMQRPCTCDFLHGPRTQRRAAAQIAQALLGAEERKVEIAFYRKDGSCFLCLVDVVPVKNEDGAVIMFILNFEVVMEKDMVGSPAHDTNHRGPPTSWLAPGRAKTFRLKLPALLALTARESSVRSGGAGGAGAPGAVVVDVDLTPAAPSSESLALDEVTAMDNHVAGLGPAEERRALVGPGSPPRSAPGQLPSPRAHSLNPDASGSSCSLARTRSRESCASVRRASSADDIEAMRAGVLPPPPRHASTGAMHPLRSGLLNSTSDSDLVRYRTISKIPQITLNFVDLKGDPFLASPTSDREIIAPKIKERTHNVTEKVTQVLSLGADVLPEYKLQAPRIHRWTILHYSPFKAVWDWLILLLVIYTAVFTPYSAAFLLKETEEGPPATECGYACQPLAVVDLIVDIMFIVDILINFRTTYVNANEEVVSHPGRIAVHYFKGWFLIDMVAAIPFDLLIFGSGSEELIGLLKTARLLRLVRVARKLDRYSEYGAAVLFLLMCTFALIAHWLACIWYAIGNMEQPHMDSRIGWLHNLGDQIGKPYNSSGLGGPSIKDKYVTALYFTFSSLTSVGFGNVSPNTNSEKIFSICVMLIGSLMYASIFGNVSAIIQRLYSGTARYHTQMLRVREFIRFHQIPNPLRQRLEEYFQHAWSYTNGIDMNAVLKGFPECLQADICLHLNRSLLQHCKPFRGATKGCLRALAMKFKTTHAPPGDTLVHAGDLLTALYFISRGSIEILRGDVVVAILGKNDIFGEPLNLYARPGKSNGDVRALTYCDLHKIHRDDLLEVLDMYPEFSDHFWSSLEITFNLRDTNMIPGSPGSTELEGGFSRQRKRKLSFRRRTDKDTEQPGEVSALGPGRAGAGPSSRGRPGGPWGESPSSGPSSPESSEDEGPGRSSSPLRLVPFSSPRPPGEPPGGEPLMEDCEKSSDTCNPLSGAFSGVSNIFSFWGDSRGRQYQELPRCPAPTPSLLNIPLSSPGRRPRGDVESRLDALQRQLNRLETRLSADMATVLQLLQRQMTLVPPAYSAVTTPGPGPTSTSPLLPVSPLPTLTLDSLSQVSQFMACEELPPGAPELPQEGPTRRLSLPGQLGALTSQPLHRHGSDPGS
GSK3β (Glycogen synthase kinase-3 beta), sequence (P49841 whole entry): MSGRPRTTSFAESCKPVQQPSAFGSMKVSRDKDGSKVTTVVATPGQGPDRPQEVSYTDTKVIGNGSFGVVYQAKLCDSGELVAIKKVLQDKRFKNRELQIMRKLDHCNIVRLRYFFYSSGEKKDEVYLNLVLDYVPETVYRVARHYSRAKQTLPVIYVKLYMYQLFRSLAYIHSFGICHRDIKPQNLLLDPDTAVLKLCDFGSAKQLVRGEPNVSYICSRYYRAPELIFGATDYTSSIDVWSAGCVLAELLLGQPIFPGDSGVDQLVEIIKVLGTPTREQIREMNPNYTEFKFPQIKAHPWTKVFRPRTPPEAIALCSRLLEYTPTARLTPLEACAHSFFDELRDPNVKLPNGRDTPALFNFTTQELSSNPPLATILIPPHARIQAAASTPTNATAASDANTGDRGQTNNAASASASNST

| Structure (SMILES) | IC50 (PCSK9) | IC50 [1] | IC50 [2] |
| --- | --- | --- | --- |
| Cc1cnc(N[C@H]2CC[C@H](Nc3ccc(-n4nccc(C#N)c4=O)cn3)C2)nn1 [Example 277, 2-(6-(((1S,3S)-3-((6-Methyl-1,2,4-triazin-3-yl)amino)cyclopentyl)amino)pyridin-3-yl)-3-oxo-2,3-dihydropyridazine-4-carbonitrile] | 0.0049 µM | 9.56 µM | > 40.1 µM |
| COc1cccnc1-c1ccc(N[C@H]2CC[C@H](Nc3ncc(C)nn3)C2)nc1 [Example 304, (1S,3S)—N′-(3-Methoxy-[2,3′-bipyridin]-6′-yl)-N^3-(6-methyl-1,2,4-triazin-3-yl)cyclopentane-1,3-diamine] | 0.096 µM | > 10 µM | > 40.1 µM |
| COc1cccc(-c2ccc(N[C@H]3CC[C@H](Nc4ncc(C)nn4)C3)nc2)n1 [Example 305, (1S,3S)—N′-(6-Methoxy-[2,3′-bipyridin]-6′-yl)-N^3-(6-methyl-1,2,4-triazin-3-yl)cyclopentane-1,3-diamine] | 0.091 µM | > 10 µM | 3.2 µM |
| COc1ccccc1-c1ccc(N[C@H]2CC[C@H](Nc3ncc(C)nn3)C2)nc1 [Example 306, (1S,3S)—N′-(5-(2-Methoxyphenyl)pyridin-2-yl)-N^3-(6-methyl-1,2,4-triazin-3-yl)cyclopentane-1,3-diamine] | 0.302 µM | > 10 µM | 4.5 µM |
| COc1cccc(OC)c1-c1ccc(N[C@H]2CC[C@H](Nc3ncc(C)nn3)C2)nc1 [Example 307, (1S,3S)—N^1-(5-(2,6-Dimethoxyphenyl)pyridin-2-yl)-N^3-(6-methyl-1,2,4-triazin-3-yl)cyclopentane-1,3-diamine] | 1.66 µM | > 10 µM | 23.3 µM |
| COc1cccc(F)c1-c1ccc(N[C@H]2CC[C@H](Nc3ncc(C)nn3)C2)nc1 [Example 308, (1S,3S)—N′-(5-(2-Fluoro-6-methoxyphenyl)pyridin-2-yl)-N^3-(6-methyl-1,2,4-triazin-3-yl)cyclopentane-1,3-diamine] | 0.051 µM | > 10 µM | 12 µM |
| Cc1cnc(N[C@H]2CC[C@H](Nc3ccc(-c4ccccn4)cn3)C2)nn1 [Example 309, (1S,3S)—N′-([2,3′-Bipyridin]-6′-yl)-N^3-(6-methyl-1,2,4-triazin-3-yl)cyclopentane-1,3-diamine] | 0.534 µM | > 10 µM | 11.4 µM |
| Cc1cnc(N[C@H]2CC[C@H](Nc3ccc(-n4cc5ccccc5n4)cn3)C2)nn1 [Example 312, (1S,3S)—N^1-(5-(2H-Indazol-2-yl)pyridin-2-yl)-N^3-(6-methyl-1,2,4-triazin-3-yl)cyclopentane-1,3-diamine] | 0.037 µM | > 10 µM | 4.2 µM |
| Cc1cnc(N[C@H]2CC[C@H](Nc3ccc(-n4nc(C)nc4C)cn3)C2)nn1 [Example 313, (1S,3S)—N^1-(5-(3,5-dimethyl-1H-1,2,4-triazol-1-yl)pyridin-2-yl)-N^3-(6-methyl-1,2,4-triazin-3-yl)cyclopentane-1,3-diamine] | 0.016 µM | > 10 µM | > 40.1 µM |
| Cc1cnc(N[C@H]2CC[C@H](Nc3ccc(-c4nc(C)oc4C)cn3)C2)nn1 [Example 314, (1S,3S)—N^1-(5-(2,5-Dimethyloxazol-4-yl)pyridin-2-yl)-N^3-(6-methyl-1,2,4-triazin-3-yl)cyclopentane-1,3-diamine] | 0.11 µM | > 10 µM | 25.7 µM |
